Earlier results as cited in patent publication US20030175349A1, “Pharmaceutical compostion for extended/sustained release of a therapeutically active ingredient” (COUNCIL OF SCIENTIFIC AND INDUSTRIAL RESEARCH, priority 2002, published 2003).

Compound | solubility in water (in words) | parts of water in which 1 part is soluble (at 20° C.)
CC(=O)Oc1ccccc1C(=O)O [Aspirin, aspirin] | slightly soluble in water | 
Cc1ccc(S(=O)(=O)NC(=O)NN2CC3CCCC3C2)cc1 (stereo not drawn) [Gliclazide, gliclazide] | practically insoluble in water | 
CC(=O)OCC(COC(C)=O)OC(C)=O [triacetin] |  | 14 parts of water
